In ChEMBL document CHEMBL4382249, “1-Arylsulfonyl indoline-benzamides as a new antitubulin agents, with inhibition of histone deacetylase” (Eur J Med Chem, 2019):
Active and inactive are the calls of the source. The calls are words filed in the database; no cut-off is given here.

Assays:
BJAB = assay: Antitumor activity against human BJAB cells xenografted in NOD/SCID mouse assessed as tumor growth inhibition at 50 mg/kg, iv daily for 5 days/week measured on day 25 post first dose; type: functional, organism-based
Tubulin (Bos taurus) = Tubulin (Bos taurus) (UniProt Q6B856+Q862L2+Q862F3); conditions: at 1 µM
MKN-45 = assay: Growth inhibition of human MKN45 cells after 48 hrs by SRB assay; type: functional, cell-based; conditions: MKN-45, 48 h
[1] = Growth inhibition of human KB-S15 cells after 48 hrs by SRB assay; type: functional; conditions: KB-S15, 48 h

inhibition (Tubulin (Bos taurus)): 69.9%
IC50 (MKN-45): 63 nM
Compound: COc1ccc(S(=O)(=O)N2CCc3cccc(NCc4ccc(C(=O)Nc5ccccc5N)cc4)c32)cc1
TGI (BJAB): Active
IC50 [1]: 43.9 nM
